ChEMBL document CHEMBL3751761, “Analogues of boswellic acids as inhibitors of pro-inflammatory cytokines TNF-α and IL-6” (Bioorg Med Chem Lett, 2016)

Key:
PBMC [1] = test: Anti-inflammatory activity in human PBMC assessed as inhibition of LPS-induced TNFalpha expression at 10 uM after 5 hrs; format: functional
PBMC [2] = test: Anti-inflammatory activity in human PBMC assessed as inhibition of LPS-induced IL-6 expression at 10 uM after 5 hrs; format: functional
[3] = Cytotoxicity against human FR2 cells assessed as cell viability at 10 uM after 48 hrs by MTT assay; format: cell-based; conditions: read-out: Activity
Mus musculus [4] = test: Anti-inflammatory activity in BALB/c mouse assessed as inhibition of LPS-induced IL-6 expression at 10 mg/kg, po pre-treated for 1 hr followed by LPS administration measured 2.5 hrs after LPS challenge by ELISA; format: functional
Mus musculus [5] = test: Anti-inflammatory activity in BALB/c mouse assessed as inhibition of LPS-induced TNFalpha expression at 10 mg/kg, po pre-treated for 1 hr followed by LPS administration measured 2.5 hrs after LPS challenge by ELISA; format: functional

Row | SMILES | inhibition at 10 µM (PBMC [1]) [%] | inhibition at 10 µM (PBMC [2]) [%] | viability at 48 h, 10 µM [3] [%] | inhibition in vivo at 10 mg/kg (Mus musculus [4]) [%] | inhibition in vivo at 10 mg/kg (Mus musculus [5]) [%]
1 | CCC(=O)O[C@@H]1CC[C@@]2(C)[C@@H](CC[C@]3(C)[C@@H]2CC=C2[C@@H]4[C@@H](C)[C@H](C)CC[C@]4(C)CC[C@]23C)[C@@]1(C)C(=O)O | 40 | 43.5 |  |  | 
2 | CCCC(=O)O[C@@H]1CC[C@@]2(C)[C@@H](CC[C@]3(C)[C@@H]2CC=C2[C@@H]4[C@@H](C)[C@H](C)CC[C@]4(C)CC[C@]23C)[C@@]1(C)C(=O)O | 41.4 | 34.8 |  |  | 
3 | CCC(=O)O[C@@H]1CC[C@@]2(C)[C@@H](CC[C@]3(C)[C@@H]2C(=O)C=C2[C@@H]4[C@@H](C)[C@H](C)CC[C@]4(C)CC[C@]23C)[C@@]1(C)C(=O)O | 38.9 | 36.6 |  |  | 
4 | CCCC(=O)O[C@@H]1CC[C@@]2(C)[C@@H](CC[C@]3(C)[C@@H]2C(=O)C=C2[C@@H]4[C@@H](C)[C@H](C)CC[C@]4(C)CC[C@]23C)[C@@]1(C)C(=O)O | 34.1 | 22.5 |  |  | 
5 | CCCC(=O)O[C@H]1CC[C@@]2(C)[C@@H](CC[C@]3(C)[C@@H]2CC=C2[C@@H]4[C@@H](C)[C@H](C)CC[C@]4(C)CC[C@]23C)[C@@]1(C)C(=O)O | 68.9 | 39.5 | 83 | 51.6 | 58.7
6 | CCCC(=O)O[C@H]1CC[C@@]2(C)[C@@H](CC[C@]3(C)[C@@H]2C(=O)C=C2[C@@H]4[C@@H](C)[C@H](C)CC[C@]4(C)CC[C@]23C)[C@@]1(C)C(=O)O | 44.2 | 52.3 | 80 | 48.5 | 37.8
7 | C[C@H]1[C@H](C)CC[C@]2(C)CC[C@]3(C)C(=CC(=O)[C@@H]4[C@@]5(C)CC[C@H](O)[C@](C)(C(=O)O)[C@@H]5CC[C@]43C)[C@H]12 | 53.5 | 49.6 | 100 | 28.9 | 71.3
8 | CC(=O)O[C@H]1CC[C@@]2(C)[C@@H](CC[C@]3(C)[C@@H]2CC=C2[C@@H]4[C@@H](C)[C@H](C)CC[C@]4(C)CC[C@]23C)[C@@]1(C)C(=O)O | 57.9 | 51.1 | 99 | 19.5 | 
9 | CC(=O)O[C@H]1CC[C@@]2(C)[C@@H](CC[C@]3(C)[C@@H]2C(=O)C=C2[C@@H]4[C@@H](C)[C@H](C)CC[C@]4(C)CC[C@]23C)[C@@]1(C)C(=O)O | 39.6 | 44.7 |  |  | 
10 | CC(=O)O[C@@H]1CC[C@@]2(C)[C@@H](CC[C@]3(C)[C@@H]2CC=C2[C@@H]4[C@@H](C)[C@H](C)CC[C@]4(C)CC[C@]23C)[C@@]1(C)C(=O)O | 43.8 |  |  |  | 
11 | CC(=O)O[C@@H]1CC[C@@]2(C)[C@@H](CC[C@]3(C)[C@@H]2CC=C2[C@@H]4[C@@H](C)[C@H](C)CC[C@]4(C)CC[C@]23C)[C@@]1(C)N=C=O | 40.6 |  |  |  | 
12 | CC(=O)O[C@@H]1CC[C@]2(C)[C@H]3CC=C4[C@@H]5[C@@H](C)[C@H](C)CC[C@]5(C)CC[C@@]4(C)[C@]3(C)CC[C@H]2[C@@]1(C)N | 68.3 | 63.3 | 100 | 41.4 | 39.5
13 | CC(=O)O[C@@H]1CC[C@]2(C)[C@H]3C(=O)C=C4[C@@H]5[C@@H](C)[C@H](C)CC[C@]5(C)CC[C@@]4(C)[C@]3(C)CC[C@H]2[C@@]1(C)N | 78.9 | 58.4 | 97 | 39.1 | 53.3
14 | CCCCCC(=O)O[C@H]1CC[C@@]2(C)[C@@H](CC[C@]3(C)[C@@H]2C(=O)C=C2[C@@H]4[C@@H](C)[C@H](C)CC[C@]4(C)CC[C@]23C)[C@@]1(C)C(=O)O | 44.7 | 64 | 85 | 44.1 | 30.7
15 | CCCCCC(=O)O[C@H]1CC[C@@]2(C)[C@@H](CC[C@]3(C)[C@@H]2CC=C2[C@@H]4[C@@H](C)[C@H](C)CC[C@]4(C)CC[C@]23C)[C@@]1(C)C(=O)O | 42.5 | 53.4 | 97 | 41.6 | 59.3
16 | CCCCCC(=O)O[C@@H]1CC[C@@]2(C)[C@@H](CC[C@]3(C)[C@@H]2CC=C2[C@@H]4[C@@H](C)[C@H](C)CC[C@]4(C)CC[C@]23C)[C@@]1(C)C(=O)O | 72.3 | 50.5 | 89 | 57.5 | 42.5
17 | CCCCCC(=O)O[C@@H]1CC[C@@]2(C)[C@@H](CC[C@]3(C)[C@@H]2C(=O)C=C2[C@@H]4[C@@H](C)[C@H](C)CC[C@]4(C)CC[C@]23C)[C@@]1(C)C(=O)O | 18.3 | 13.8 |  |  | 
18 | C[C@H]1[C@H](C)CC[C@]2(C)CC[C@]3(C)C(=CC[C@@H]4[C@@]5(C)CC[C@H](O)[C@](C)(C(=O)O)[C@@H]5CC[C@]43C)[C@H]12 | 41.4 | 42.3 |  |  | 
19 | CC(=O)O[C@@H]1CC[C@@]2(C)[C@@H](CC[C@]3(C)[C@@H]2C(=O)C=C2[C@@H]4[C@@H](C)[C@H](C)CC[C@]4(C)CC[C@]23C)[C@@]1(C)N=C=O | 40.6 | 69.8 | 91 | 40.2 | 26.4
20 | C[C@H]1[C@H](C)CC[C@]2(C)CC[C@]3(C)C(=CC(=O)[C@@H]4[C@@]5(C)CC[C@@H](O)[C@](C)(C(=O)O)[C@@H]5CC[C@]43C)[C@H]12 [11-KETO BOSWELLIC ACID] | 56.3 | 59.6 | 86 | 61.6 | 58.7
21 | CC(=O)O[C@@H]1CC[C@@]2(C)[C@@H](CC[C@]3(C)[C@@H]2C(=O)C=C2[C@@H]4[C@@H](C)[C@H](C)CC[C@]4(C)CC[C@]23C)[C@@]1(C)C(=O)O [AKBA] | 55 | 53.9 | 100 | 54.3 | 70.7
22 | C[C@H]1[C@H](C)CC[C@]2(C)CC[C@]3(C)C(=CC[C@@H]4[C@@]5(C)CC[C@@H](O)[C@](C)(C(=O)O)[C@@H]5CC[C@]43C)[C@H]12 [BOSWELLIC ACID] | 44.5 | 48.6 | 73 | 53 | 50.8
23 | COc1ccc(C2CNC(=O)C2)cc1OC1CCCC1 (centres undefined) [ROLIPRAM] | 34.6 | 26.2 |  | 36.9 | 48.1
